Measurements reported in patent US20190133979A1, “METHOD FOR ENHANCING DELIVERY OF THERAPEUTIC DRUGS TO TREATMENT SITES” (Chang Gung University, priority 2013, published 2019).
Entries after “also recorded” stand apart in the source; their conditions may differ.

Legend:
LN229 cells [1] = experiment: Determination of cell-associated MNPs (MNPcell) in LN229 cells; type: cell-based, human; details: for increase of MNPcell / enhancement of MNPcell at 4° C.: LN229 cells; for enhancement of MNPcell at 4° C.: 30 μM, 2 h; for effect on cell-associated MNPs (MNPcell), in words: LN-229 cells, with or without magnetic field; for effect on uptake of MNPs, in words: MNPs 100 μg/mL, 10 or 30 μM, 24 hrs, vs vehicle; for increase of cellular uptake of MNP: vs without compound; for concentration as low as which cellular uptake of MNPs is significantly increased / capability of enhancing cellular uptake of MNPs, in words: FIG. 4; for capability of enhancing cellular uptake of MNPs, in words: LN-299 [sic] cells
Experimental: (§1) LN229 cells, human glioma cells, were cultured in DMEM medium; whereas HeLa cells, human cervical cancer cells, were cultured in MEM medium. Both media were supplemented with 10% fetal bovine serum (FBS) and 1% penicillin/streptomycin/amphotericin B solution. The cells were maintained in a 37° C. incubator supplied with 5% CO2 and sub-cultured every 3 to 4 days.
LN229 or HeLa cells were seeded and grown in 24-well plates. […] In some experiments, cells were equilibrated at 4° C. for 20 min, followed by an additional 2-h incubation with MNPs at 4° C. in the absence and presence of the magnet. A home-made magnetic plate with 24 pieces of cylindrical NdFeB magnet were used to provide a magnetic field of 3.4 kG at the center of each well. For the group without the magnet during incubation with MNPs, the magnetic plate was placed underneath the culture plates for 5 min after MNP administration to facilitate MNP sedimentation. The cells were then washed twice with phosphate-buffered saline (PBS) and trypsinized prior to colorimetric quantification. The cell pellet containing cell-associated MNPs (MNPcell) was treated with 10% hydrochloric acid at 55° C. for 4 h, followed by adding ammonium persulfate (1 mg/mL) and potassium thiocyanate solution (1 M). The amount of cell-associated iron was determined with VICTOR3 Multilabel Plate Reader (PerkinElmer, Waltham, Mass.) at OD490. A calibration curve was prepared under identical conditions.

HeLa cells = experiment: Determination of cell-associated MNPs (MNPcell) in HeLa cells; type: cell-based, human; details: for increase of MNPcell: 10 μM; for effect on cell-associated MNPs (MNPcell), in words: with or without magnetic field
Experimental: as §1
(§2) LN229 or HeLa cells were seeded and grown in 24-well plates. After attaining 80-90% confluence, the cells were exposed to MNPs (100 μg/mL) and phenolic compounds (10 or 30 μM) in the presence or absence of NdFeB magnet underneath the plate for 24 h. In some experiments, cells were equilibrated at 4° C. for 20 min, followed by an additional 2-h incubation with MNPs at 4° C. in the absence and presence of the magnet. A home-made magnetic plate with 24 pieces of cylindrical NdFeB magnet were used to provide a magnetic field of 3.4 kG at the center of each well. For the group without the magnet during incubation with MNPs, the magnetic plate was placed underneath the culture plates for 5 min after MNP administration to facilitate MNP sedimentation. The cells were then washed twice with phosphate-buffered saline (PBS) and trypsinized prior to colorimetric quantification. The cell pellet containing cell-associated MNPs (MNPcell) was treated with 10% hydrochloric acid at 55° C. for 4 h, followed by adding ammonium persulfate (1 mg/mL) and potassium thiocyanate solution (1 M). The amount of cell-associated iron was determined with VICTOR3 Multilabel Plate Reader (PerkinElmer, Waltham, Mass.) at OD490. A calibration curve was prepared under identical conditions.

LN229 cells [2] = experiment: Confocal microscopy of fluorescent CMX-MNP internalization; type: cell-based, human
Experimental: LN229 cells were seeded onto poly-lysine coated coverslips 18 h before experiments. The cells were incubated with green fluorescent MNPs with carboxylmethyl-dextran coating (nano-screenMAG-CMX; 100 μg/mL) and methyl gallate (30 μM) at 37° C. for 2 h in the presence of NdFeB magnet underneath the culture plate. Cells were then washed twice with PBS and then incubated with Lysotracker® (0.125 μM) for 30 min for staining of lysosomes. The cells were than washed with PBS and fixed with 4% paraformaldehyde for 20 min at room temperature. The cells were counterstained with DAPI and imaged with a Zeiss LSM 510 Meta laser confocal microscope system equipped with a 100×/1.4 oil immersion objective lens. Image processing and analysis of fluorescent MNPs colocalized with cells was performed using Fiji Image J.

tumor cells = experiment: Timing of EGCG and MNP addition, MNPcell in 5 study groups; type: cell-based
Experimental: as §2
In this example, the timing for adding the present polyphenolic compound with MNPs to the tumor cells was investigated. To this purpose, 5 study groups were designed and respectively treated with the designated compounds, then the MNPcell in each group was determined. The concentrations of MNPs and epigallocatechin gallate (EGCG) or compound 12 used in this example were respectively 100 μg/mL and 10 μM. In Group I (the control group), cells were treated with MNPs (2 hrs). In Group 2, cells were first treated with EGCG (2 hrs), which was removed, and then with MNPs (2 hrs). In Group 3, cells were simultaneously treated with EGCG and MNPs for 2 hours. In Group 4, cells were first treated with EGCG (2 hrs), then with the combination of MNP and EGCG (2 hrs). […]

[3] = 10 μM, magnetic field-free environment

SMILES: O.O=C(O)c1cc(O)c(O)c(O)c1 [Compound 1, Gallic acid monohydrate]
- increase of MNPcell (LN229 cells [1]; 50 μM, absence of the magnet): 5.4 fold
- increase of MNPcell (LN229 cells [1]; 50 μM, presence of the magnet): 3.9 fold
- enhancement of MNPcell at 4° C. (LN229 cells [1]; with the magnet): 0.6 fold
- enhancement of MNPcell at 4° C. (LN229 cells [1]; without magnet): 1.9 fold
- effect on cell-associated MNPs (MNPcell), in words (LN229 cells [1]): concentration-dependent increase
- effect on uptake of MNPs, in words (LN229 cells [1]; absence of magnet): effective in enhancing the uptake of MNPs
- effect on uptake of MNPs, in words (LN229 cells [1]; presence of magnet): effective in enhancing the uptake of MNPs
- concentration as low as which a significant increase in LN229 cell-associated MNPs is induced (LN229 cells [1]; compared to vehicle, with and without magnet): 6 µM
- increase of MNPcell (HeLa cells; absence of the magnet): 1.8 fold
- increase of MNPcell (HeLa cells; presence of the magnet): 1.9 fold
- effect on cell-associated MNPs (MNPcell), in words (HeLa cells): concentration-dependent increase

SMILES: COC(=O)c1cc(O)c(O)c(O)c1 [Compound 2, Methyl Gallate]
- internalization of MNPs, in words (LN229 cells [2]; 30 μM, 2 h, CMX-MNP 100 μg/mL, compared to vehicle control): greatly increased internalization of MNPs
- overlap coefficient, Mander's coefficient, of MNP relative to lysosomes (LN229 cells [2]; in the presence of methyl gallate (n=8), vehicle 0.51±0.08): 0.65±0.03
- increase of MNPcell (LN229 cells [1]; 10 μM, absence of the magnet): 1.4 fold
- increase of MNPcell (LN229 cells [1]; 10 μM, magnet underneath cells): 2.1 fold
- increase of MNPcell (LN229 cells [1]; 50 μM, absence of the magnet): 4.5 fold
- increase of MNPcell (LN229 cells [1]; 50 μM, presence of the magnet): 2.9 fold
- enhancement of MNPcell at 4° C. (LN229 cells [1]; with the magnet): 0.4 fold
- enhancement of MNPcell at 4° C. (LN229 cells [1]; without magnet): 1.4 fold
- effect on cell-associated MNPs (MNPcell), in words (LN229 cells [1]; listed as Methyl gallate): enhanced MNPcell in a concentration-dependent manner
- effect on cell-associated MNPs (MNPcell), in words (LN229 cells [1]; listed as methyl gallate): concentration-dependent increase
- effect on uptake of MNPs, in words (LN229 cells [1]; absence of magnet): effective in enhancing the uptake of MNPs
- effect on uptake of MNPs, in words (LN229 cells [1]; presence of magnet): effective in enhancing the uptake of MNPs
- increase of MNPcell (HeLa cells; absence of the magnet): 0.6 fold
- increase of MNPcell (HeLa cells; presence of the magnet): 1.0 fold
- effect on cell-associated MNPs (MNPcell), in words (HeLa cells): concentration-dependent increase

SMILES: CCCOC(=O)c1cc(O)c(O)c(O)c1 [Compound 3, Propyl Gallate]
- effect on uptake of MNPs, in words (LN229 cells [1]; absence of magnet): effective in enhancing the uptake of MNPs
- effect on uptake of MNPs, in words (LN229 cells [1]; presence of magnet): effective in enhancing the uptake of MNPs

SMILES: NC(=O)c1cc(O)c(O)c(O)c1 [Compound 4, 3,4,5-trihydroxybenzamide]
- effect on uptake of MNPs, in words (LN229 cells [1]; absence of magnet): effective in enhancing the uptake of MNPs
- effect on uptake of MNPs, in words (LN229 cells [1]; presence of magnet): effective in enhancing the uptake of MNPs

SMILES: O=C(O)c1ccc(O)c(O)c1 [Compound 5, protocatechuic acid]
- effect on uptake of MNPs, in words (LN229 cells [1]; presence of magnet): enhanced the uptake of MNPs in the presence of magnet

SMILES: O=C(O)c1ccc(O)cc1 [Compound 6, p-hydroxybenzoic acid]
- effect on uptake of MNPs, in words (LN229 cells [1]; absence of magnet): none of them was effective
- effect on uptake of MNPs, in words (LN229 cells [1]; presence of magnet): none of them was effective

SMILES: O=C(O)c1cc(O)cc(O)c1 [Compound 7, α-resorcylic acid]
- effect on uptake of MNPs, in words (LN229 cells [1]; absence of magnet): none of them was effective
- effect on uptake of MNPs, in words (LN229 cells [1]; presence of magnet): none of them was effective

SMILES: O=C(O)/C=C/c1ccc(O)c(O)c1 [Compound 9, caffeic acid]
- effect on uptake of MNPs, in words (LN229 cells [1]; presence of magnet): enhanced the uptake of MNPs in the presence of magnet

SMILES: O=C(O)CCc1ccc(O)c(O)c1 [Compound 10, Dihydrocaffeic Acid]
- effect on uptake of MNPs, in words (LN229 cells [1]; presence of magnet): enhanced the uptake of MNPs in the presence of magnet

SMILES: COc1cc(/C=C/C(=O)O)ccc1O [Compound 11, ferulic acid]
- effect on uptake of MNPs, in words (LN229 cells [1]; absence of magnet): none of them was effective
- effect on uptake of MNPs, in words (LN229 cells [1]; presence of magnet): none of them was effective

SMILES: O=C(O[C@@H]1Cc2c(O)cc(O)cc2O[C@@H]1c1cc(O)c(O)c(O)c1)c1cc(O)c(O)c(O)c1 [Compound 12, Epigallocatechin gallate]
- increase of cellular uptake of MNP (LN229 cells [1]; 10 μM, external magnetic field): 16 times
- increase of cellular uptake of MNP (LN229 cells [1]; [3]): 5.7 times
- concentration as low as which cellular uptake of MNPs is significantly increased (LN229 cells [1]): 3 µM
- capability of enhancing cellular uptake of MNPs, in words (LN229 cells [1]; listed as EGCG): possessed the capability of enhancing cellular uptake of MNPs; also recorded: enhanced cellular uptake of MNPs
- uptake of MNPs, in words (tumor cells; Group 2: EGCG 10 μM 2 hrs, removed, then MNPs 100 μg/mL 2 hrs): no enhanced uptake of MNPs was found
- uptake of MNPs, in words (tumor cells; Group 3: EGCG 10 μM and MNPs 100 μg/mL simultaneously 2 hours, presence and absence of magnet): enhanced uptake of MNPs was achieved
- uptake of MNPs, in words (tumor cells; Groups 4 and 5: EGCG pre-treatment 2 or 4 hrs, then MNP and EGCG 2 hrs, vs Group 3): did not result in further increase in the cellular uptake of MNPs

SMILES: O=C(O[C@@H]1Cc2c(O)cc(O)cc2O[C@@H]1c1ccc(O)c(O)c1)c1cc(O)c(O)c(O)c1 [Compound 13, Epicatechin gallate]
- increase of cellular uptake of MNP (LN229 cells [1]; 10 μM, external magnetic field): 5-6 times
- increase of cellular uptake of MNP (LN229 cells [1]; [3]): 12 times
- concentration as low as which cellular uptake of MNPs is significantly increased (LN229 cells [1]): 3 µM
- capability of enhancing cellular uptake of MNPs, in words (LN229 cells [1]; listed as ECG): possessed the capability of enhancing cellular uptake of MNPs; also recorded: enhanced cellular uptake of MNPs

SMILES: O=c1c(O)c(-c2ccc(O)c(O)c2)oc2cc(O)cc(O)c12 [quercetin]
- cellular uptake of MNP higher than without compound (LN229 cells [1]; 20 μM, absence of magnetic field): 5 times
- capability of enhancing cellular uptake of MNPs, in words (LN229 cells [1]): possessed the capability of enhancing cellular uptake of MNPs; also recorded: enhanced cellular uptake of MNPs
- effect on uptake of MNP in the presence of magnet, in words (LN229 cells [1]; presence of magnet): more significant increase in the uptake of MNP via a concentration-dependent manner
